The term IC50 denotes the concentration at which inhibition is half-maximal.

The target in one experiment is T1, FLT3 WT (Homo sapiens, UniProt P36888).
T1 construct: purchased ProQinase GmbH
T1 sequence (P36888 27-993): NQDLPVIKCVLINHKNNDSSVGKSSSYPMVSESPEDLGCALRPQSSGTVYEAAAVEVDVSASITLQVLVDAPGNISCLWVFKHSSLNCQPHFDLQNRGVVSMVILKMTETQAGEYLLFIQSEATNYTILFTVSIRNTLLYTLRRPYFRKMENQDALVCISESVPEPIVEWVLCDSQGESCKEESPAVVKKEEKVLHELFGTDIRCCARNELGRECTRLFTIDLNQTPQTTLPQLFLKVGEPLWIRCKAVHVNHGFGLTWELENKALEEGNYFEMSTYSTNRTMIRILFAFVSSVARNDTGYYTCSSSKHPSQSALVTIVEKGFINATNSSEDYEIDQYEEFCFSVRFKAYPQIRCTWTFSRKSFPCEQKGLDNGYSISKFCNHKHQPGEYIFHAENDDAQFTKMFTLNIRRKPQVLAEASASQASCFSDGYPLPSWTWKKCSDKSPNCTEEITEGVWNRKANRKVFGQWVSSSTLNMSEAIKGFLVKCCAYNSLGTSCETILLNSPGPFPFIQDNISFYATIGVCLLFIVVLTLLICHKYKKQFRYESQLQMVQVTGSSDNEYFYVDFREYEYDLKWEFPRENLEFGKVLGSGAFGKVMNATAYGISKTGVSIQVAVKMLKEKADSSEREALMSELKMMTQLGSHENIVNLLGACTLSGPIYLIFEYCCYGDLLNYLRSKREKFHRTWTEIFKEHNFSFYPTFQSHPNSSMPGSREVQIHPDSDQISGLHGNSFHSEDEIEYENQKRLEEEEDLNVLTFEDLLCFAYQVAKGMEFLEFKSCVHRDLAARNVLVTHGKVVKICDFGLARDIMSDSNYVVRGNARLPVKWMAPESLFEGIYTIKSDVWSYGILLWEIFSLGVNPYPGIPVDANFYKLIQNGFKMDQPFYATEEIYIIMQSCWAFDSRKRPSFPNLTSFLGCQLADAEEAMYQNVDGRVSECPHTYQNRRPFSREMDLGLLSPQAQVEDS
Nature of the experiment: Kinase inhibition assay with [γ-33P]ATP. The class given is biochemical. The following applies: AGLT substrate, 1 μM ATP. In outline: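 Radiometric [γ-33P]ATP assay in HEPES pH 7.5 with Mg2+/Mn2+: CDK1/Cyclin B (Sf9-expressed) and purchased CDK5/p35 with 1 mg/mL histone H1 at 15 and 0.15 μM ATP respectively; FLT3 WT and FLT3-ITD with AGLT substrate at 1 μM ATP. Reactions stopped with H3PO4, spotted onto phosphocellulose and washed.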

The target of another experiment is T2, FLT3 D835 (Homo sapiens, UniProt P36888).
T2 sequence (P36888 1-993 D835Y): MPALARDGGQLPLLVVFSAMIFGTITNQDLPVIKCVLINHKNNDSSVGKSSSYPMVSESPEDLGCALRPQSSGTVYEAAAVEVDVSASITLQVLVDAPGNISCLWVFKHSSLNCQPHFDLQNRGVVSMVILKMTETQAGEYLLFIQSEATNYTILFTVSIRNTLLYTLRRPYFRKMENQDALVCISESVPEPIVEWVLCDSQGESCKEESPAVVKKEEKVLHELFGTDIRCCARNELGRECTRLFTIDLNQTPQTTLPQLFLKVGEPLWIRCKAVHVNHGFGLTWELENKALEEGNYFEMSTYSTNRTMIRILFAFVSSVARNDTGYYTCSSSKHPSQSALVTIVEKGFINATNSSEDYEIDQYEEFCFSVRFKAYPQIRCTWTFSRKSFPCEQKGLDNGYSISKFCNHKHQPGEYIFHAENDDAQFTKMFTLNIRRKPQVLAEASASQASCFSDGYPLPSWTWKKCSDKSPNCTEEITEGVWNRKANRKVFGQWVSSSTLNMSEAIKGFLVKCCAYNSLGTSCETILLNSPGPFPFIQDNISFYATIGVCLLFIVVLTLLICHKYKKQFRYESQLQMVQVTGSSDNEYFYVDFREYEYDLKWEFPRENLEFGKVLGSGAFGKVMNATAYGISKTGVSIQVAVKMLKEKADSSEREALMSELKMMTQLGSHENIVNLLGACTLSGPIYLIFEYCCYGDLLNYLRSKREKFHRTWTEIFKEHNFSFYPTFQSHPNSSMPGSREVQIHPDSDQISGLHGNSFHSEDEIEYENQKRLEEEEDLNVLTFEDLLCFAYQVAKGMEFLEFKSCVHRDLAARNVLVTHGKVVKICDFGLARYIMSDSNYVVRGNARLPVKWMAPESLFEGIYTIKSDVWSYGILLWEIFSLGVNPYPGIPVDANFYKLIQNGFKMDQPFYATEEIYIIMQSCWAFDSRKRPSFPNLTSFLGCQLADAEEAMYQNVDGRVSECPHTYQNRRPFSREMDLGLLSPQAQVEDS
The experiment can be described thus: Kinase inhibition assay with [γ-33P]ATP. The following applies: AGLT substrate, 1 μM ATP. The class given is biochemical.

On to `NCCNc1nc(Nc2ccc(CN3CCNCC3)cc2)c2ncn(C3CCCC3)c2n1` [Compound 14], for which the figures for the IC50 on FLT3 WT and at FLT3 D835 were 0.014 µM and 0.01 µM, respectively.

Turning to `CN(C)CCNc1nc(Nc2ccc(CN3CCOCC3)nc2)c2ncn(C3CCCC3)c2n1` [Compound 172], the IC50 on FLT3 WT came out at 0.011 µM; at FLT3 D835 it was 0.005 µM.

In the case of `CN1CCN(C(=O)c2ccc(Nc3nc(NC4CCC(N)CC4)nc4c3ncn4C3CCCC3)cc2)CC1` (centres unmarked) [Compound 3], the IC50 turned out to be 0.021 µM on FLT3 WT and 0.003 µM on FLT3 D835.

On to `NCCCCNc1nc(Nc2ccc(N3CC4(COC4)C3)nc2)c2ncn(C3CCCC3)c2n1` [Compound 28], for which the figures for the IC50 at FLT3 WT and at FLT3 D835 were 0.01 µM and 0.002 µM, respectively.

`CN1CCN(C(=O)c2ccc(Nc3nc(NCCCCN)nc4c3ncn4C3CCCC3)cc2)CC1` [Compound 27]: the results for the IC50 at FLT3 WT and against FLT3 D835 were 0.019 µM and 0.011 µM, respectively.

Take `NCCCCNc1nc(Nc2ccc(N3CCOCC3)cc2)c2ncn(C3CCCC3)c2n1` [Compound 265]: the IC50 against FLT3 WT was found to be 0.023 µM; on FLT3 D835 it was 0.007 µM.

With `NC1CCC(Nc2nc(Nc3ccc(N4CC5(COC5)C4)cc3)c3ncn(C4CCCC4)c3n2)CC1` (centres unmarked) [Compound 272], the IC50 on FLT3 WT was determined as 0.013 µM.

For the compound `CCN1CCN(c2ccc(Nc3nc(NCCCCN)nc4c3ncn4C3CCCC3)cc2)CC1` [Compound 266], the IC50 turned out to be 0.013 µM at FLT3 WT and 0.003 µM at FLT3 D835.

In the case of `NC1CCC(Nc2nc(Nc3ccc(N4CCCC4)cc3)c3ncn(C4CCCC4)c3n2)CC1` (centres unmarked) [Compound 263], the IC50 against FLT3 WT came out at 0.021 µM; at FLT3 D835, 0.011 µM.

Turning to `NC1CCC(Nc2nc(Nc3ccc(CN4CCNCC4)cc3)c3ncn(C4CCCC4)c3n2)CC1` (centres unmarked) [Compound 2], the values for the IC50 against FLT3 WT and at FLT3 D835 were 0.015 µM and 0.003 µM, respectively.

In the case of `CN(C)CCCNc1nc(Nc2ccc(C(=O)N3CCOCC3)nc2)c2ncn(C3CCCC3)c2n1` [Compound 179], the IC50 against FLT3 WT came to 0.09 µM; on FLT3 D835 it was 0.023 µM.

In the case of `NC1CCC(Nc2nc(Nc3ccc(CN4CCOCC4)cc3)c3ncn(C4CCCC4)c3n2)CC1` (centres unmarked) [Compound 264], the IC50 came out at 0.013 µM against FLT3 WT and 0.009 µM on FLT3 D835.

As to `NC1CCC(Nc2nc(Nc3ccc(N4CCOCC4)cc3)c3ncn(C4CCCC4)c3n2)CC1` (centres unmarked) [Compound 1], the IC50 turned out to be 0.023 µM on FLT3 WT and 0.007 µM on FLT3 D835.

Consider `NCCCCNc1nc(Nc2ccc(CN3CCOCC3)cc2)c2ncn(C3CCCC3)c2n1` [Compound 270], for which the IC50 at FLT3 WT is 0.006 µM; against FLT3 D835 it was 0.005 µM.

`CN1CC2(C1)CN(c1ccc(Nc3nc(NC4CCC(O)CC4)nc4c3ncn4C3CCCC3)cc1)C2` (centres unmarked) [Compound 7]: the figures for the IC50 on FLT3 WT and on FLT3 D835 were 0.026 µM and 0.011 µM, respectively.

These data come from patent publication US11028087B2, “2,6-disubstituted-9-cyclopentyl-9H-purines, use thereof as medicaments, and pharmaceutical compositions” (UNIVERZITA PALACKEHO V OLOMOUCI, priority 2017, dated 2021).
